Where a SMILES comes first, the peptide text is derived from it. Bridges are numbered along the chain shown (N, C = ends). [ ]: non-standard residue; d: D form. The star is where a group is joined. Threoninol(2S,3R) = C[C@@H](O)[C@H](CO)N*
Experiments:
[1] = molecular target: T1, Alpha-1B adrenergic receptor (Rattus norvegicus, UniProt P15823); experiment: DRUGMATRIX: Alpha-1B adrenergic receptor radioligand binding (ligand: prazosin); format: cell membranes, Wistar, Liver, Membrane; details: Not Active = under 50% inhibition at 10 µM
T1 sequence (P15823 whole entry): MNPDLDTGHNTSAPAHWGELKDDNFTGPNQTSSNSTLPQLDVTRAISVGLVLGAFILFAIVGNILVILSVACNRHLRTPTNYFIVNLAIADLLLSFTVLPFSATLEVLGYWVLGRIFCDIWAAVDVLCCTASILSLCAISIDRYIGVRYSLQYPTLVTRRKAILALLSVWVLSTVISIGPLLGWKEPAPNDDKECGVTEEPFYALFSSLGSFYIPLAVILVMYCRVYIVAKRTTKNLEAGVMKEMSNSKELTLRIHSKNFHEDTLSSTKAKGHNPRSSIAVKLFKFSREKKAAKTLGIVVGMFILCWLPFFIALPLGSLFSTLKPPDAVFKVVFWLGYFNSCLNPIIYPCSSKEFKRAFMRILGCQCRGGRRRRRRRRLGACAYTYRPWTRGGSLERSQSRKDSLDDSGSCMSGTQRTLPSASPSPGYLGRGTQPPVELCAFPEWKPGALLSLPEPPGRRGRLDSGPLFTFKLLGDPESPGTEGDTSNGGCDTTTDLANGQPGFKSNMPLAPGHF

[2] = molecular target: T2, Muscarinic acetylcholine receptor M4 (Homo sapiens, UniProt P08173); format: cell membranes, CHO-K1, Membrane; details: cho-k1; further: in other assays of this panel Not Active means under 50% inhibition at 10 µM
T2 sequence (P08173 whole entry): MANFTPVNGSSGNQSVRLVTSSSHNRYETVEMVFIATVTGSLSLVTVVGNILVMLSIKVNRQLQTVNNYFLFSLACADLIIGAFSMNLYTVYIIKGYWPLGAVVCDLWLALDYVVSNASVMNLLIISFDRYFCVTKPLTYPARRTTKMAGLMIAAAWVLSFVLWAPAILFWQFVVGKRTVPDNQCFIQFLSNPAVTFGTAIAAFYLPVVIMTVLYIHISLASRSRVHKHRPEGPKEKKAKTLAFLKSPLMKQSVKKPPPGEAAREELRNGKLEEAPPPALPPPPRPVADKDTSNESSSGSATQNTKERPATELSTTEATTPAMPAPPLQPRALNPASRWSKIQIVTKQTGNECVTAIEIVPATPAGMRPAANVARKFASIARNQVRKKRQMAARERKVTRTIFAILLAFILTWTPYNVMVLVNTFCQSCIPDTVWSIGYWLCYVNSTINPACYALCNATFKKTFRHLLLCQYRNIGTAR

[3] = molecular target: Sodium-dependent noradrenaline transporter (Homo sapiens, UniProt P23975); experiment: DRUGMATRIX: Norepinephrine Transporter radioligand binding (ligand: [125I] RTI-55); format: cell membranes, MDCK, Membrane; details: mdck; Not Active = under 50% inhibition at 10 µM
Sequence of Sodium-dependent noradrenaline transporter (P23975 whole entry): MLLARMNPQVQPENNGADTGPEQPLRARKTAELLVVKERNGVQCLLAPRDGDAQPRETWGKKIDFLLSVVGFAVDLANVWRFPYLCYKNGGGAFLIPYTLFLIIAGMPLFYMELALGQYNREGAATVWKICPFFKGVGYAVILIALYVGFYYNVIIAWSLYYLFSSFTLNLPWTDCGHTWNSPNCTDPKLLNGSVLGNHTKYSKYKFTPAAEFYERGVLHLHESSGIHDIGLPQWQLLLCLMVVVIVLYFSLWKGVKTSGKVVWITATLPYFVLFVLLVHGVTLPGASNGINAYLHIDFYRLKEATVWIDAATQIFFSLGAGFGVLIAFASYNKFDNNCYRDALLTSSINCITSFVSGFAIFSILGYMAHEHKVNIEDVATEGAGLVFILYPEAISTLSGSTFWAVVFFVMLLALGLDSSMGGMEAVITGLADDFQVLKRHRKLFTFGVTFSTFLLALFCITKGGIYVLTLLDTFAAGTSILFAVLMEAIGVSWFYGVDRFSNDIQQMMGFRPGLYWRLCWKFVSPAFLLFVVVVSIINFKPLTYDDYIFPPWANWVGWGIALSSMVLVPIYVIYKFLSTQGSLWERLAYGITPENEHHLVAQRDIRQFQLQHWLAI

[4] = molecular target: T3, Cysteinyl leukotriene receptor 1 (Homo sapiens, UniProt Q9Y271); format: cell membranes, CHO-K1, Membrane; details: cho-k1; further: in other assays of this panel Not Active means under 50% inhibition at 10 µM
T3 sequence (Q9Y271 whole entry): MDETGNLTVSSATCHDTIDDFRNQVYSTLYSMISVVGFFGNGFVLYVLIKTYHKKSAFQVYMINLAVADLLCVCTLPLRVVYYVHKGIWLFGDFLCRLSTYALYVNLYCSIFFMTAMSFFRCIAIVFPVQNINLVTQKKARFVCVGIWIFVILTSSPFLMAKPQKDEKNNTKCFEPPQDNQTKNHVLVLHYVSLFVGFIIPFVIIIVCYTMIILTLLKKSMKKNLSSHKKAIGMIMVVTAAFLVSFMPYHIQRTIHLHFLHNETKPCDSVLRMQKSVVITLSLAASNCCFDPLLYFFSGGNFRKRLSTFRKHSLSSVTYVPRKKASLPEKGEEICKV

Estrogen receptor = molecular target: T4, Estrogen receptor (Homo sapiens, UniProt P03372); details: sf9; further: in other assays of this panel Not Active means under 50% inhibition at 10 µM
T4 sequence (P03372 whole entry): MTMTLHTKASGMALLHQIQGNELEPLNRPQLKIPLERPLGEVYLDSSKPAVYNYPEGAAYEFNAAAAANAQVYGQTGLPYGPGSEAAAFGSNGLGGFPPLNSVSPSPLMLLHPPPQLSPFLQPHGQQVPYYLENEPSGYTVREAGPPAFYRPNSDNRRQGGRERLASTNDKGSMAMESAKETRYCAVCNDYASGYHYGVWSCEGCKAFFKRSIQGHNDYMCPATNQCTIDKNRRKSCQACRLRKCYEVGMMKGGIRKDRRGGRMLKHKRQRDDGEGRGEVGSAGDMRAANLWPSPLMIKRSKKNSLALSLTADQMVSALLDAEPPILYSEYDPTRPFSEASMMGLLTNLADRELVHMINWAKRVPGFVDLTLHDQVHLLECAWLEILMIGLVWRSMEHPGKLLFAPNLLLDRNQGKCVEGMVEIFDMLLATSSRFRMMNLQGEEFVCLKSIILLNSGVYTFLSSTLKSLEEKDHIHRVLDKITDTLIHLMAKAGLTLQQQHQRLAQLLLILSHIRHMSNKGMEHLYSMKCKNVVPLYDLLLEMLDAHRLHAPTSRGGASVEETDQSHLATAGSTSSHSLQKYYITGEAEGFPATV

[5] = molecular target: C-C chemokine receptor type 5 (Homo sapiens, UniProt P51681); format: cell membranes, HEK293, Membrane; details: hek293; further: in other assays of this panel Not Active means under 50% inhibition at 10 µM
Sequence of C-C chemokine receptor type 5 (P51681 whole entry): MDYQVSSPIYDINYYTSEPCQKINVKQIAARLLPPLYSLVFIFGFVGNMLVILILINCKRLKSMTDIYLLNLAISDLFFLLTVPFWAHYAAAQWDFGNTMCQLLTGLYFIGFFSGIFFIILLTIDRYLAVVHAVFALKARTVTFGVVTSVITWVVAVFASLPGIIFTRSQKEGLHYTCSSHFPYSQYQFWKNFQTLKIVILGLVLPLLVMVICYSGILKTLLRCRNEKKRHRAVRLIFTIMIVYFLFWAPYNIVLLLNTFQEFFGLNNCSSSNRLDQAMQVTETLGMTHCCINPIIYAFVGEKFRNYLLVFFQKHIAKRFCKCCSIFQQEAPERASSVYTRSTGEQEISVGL

[6] = molecular target: T5, Alpha-1A adrenergic receptor (Rattus norvegicus, UniProt P43140); experiment: DRUGMATRIX: Alpha-1A adrenergic receptor radioligand binding (ligand: prazosin); format: cell membranes, Wistar, Submaxillary gland, Membrane; details: Not Active = under 50% inhibition at 10 µM
T5 sequence (P43140 whole entry): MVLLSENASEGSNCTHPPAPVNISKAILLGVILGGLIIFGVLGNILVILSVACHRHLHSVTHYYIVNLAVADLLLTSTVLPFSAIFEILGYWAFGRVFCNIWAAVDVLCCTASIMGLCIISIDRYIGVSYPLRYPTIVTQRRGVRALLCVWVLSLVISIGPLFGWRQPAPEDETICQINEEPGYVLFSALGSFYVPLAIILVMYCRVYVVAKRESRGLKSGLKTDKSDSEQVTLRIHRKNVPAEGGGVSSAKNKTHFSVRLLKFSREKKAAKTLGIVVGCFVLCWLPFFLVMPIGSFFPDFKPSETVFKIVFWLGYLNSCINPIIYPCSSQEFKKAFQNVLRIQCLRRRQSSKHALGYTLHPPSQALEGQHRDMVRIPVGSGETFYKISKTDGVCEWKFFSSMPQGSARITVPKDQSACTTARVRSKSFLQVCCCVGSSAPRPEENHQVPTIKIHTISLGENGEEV

[7] = DRUGMATRIX: Nicotinic Acetylcholine radioligand binding (ligand: [125I] Epibatidine); format: cell membranes, Membrane; details: imr-32; Not Active = under 50% inhibition at 10 µM

COc1ccccc1C(=O)N1CCC(Cc2ccccc2)CC1
Not Active: IC50 [1] | IC50 [2] | IC50 [3] | IC50 [4] | IC50 (Estrogen receptor) | IC50 [5] | IC50 [6] | IC50 [7] | Ki [7]

C=C1CC[C@H](O)C/C1=C/C=C1\CCC[C@]2(C)[C@@H]([C@H](C)CCCC(C)C)CC[C@@H]12 [CHOLECALCIFEROL]
Not Active: IC50 [1] | IC50 [2] | IC50 [3] | IC50 [4] | IC50 (Estrogen receptor) | IC50 [5] | IC50 [6] | IC50 [7] | Ki [7]

COc1cc2c(c3oc(=O)c4c(c13)CCC4=O)[C@@H]1C=CO[C@@H]1O2 [AFLATOXIN]
Not Active: IC50 [1] | Ki [1] | IC50 [2] | Ki [2] | IC50 [3] | Ki [3] | IC50 [4] | Ki [4] | IC50 (Estrogen receptor) | Ki (Estrogen receptor) | IC50 [5] | Ki [5] | IC50 [6] | Ki [6] | IC50 [7] | Ki [7]

CC(C)Cc1ccc(C(C)C(=O)O)cc1 (centres undefined) [IBUPROFEN]
Not Active: IC50 [1] | IC50 [2] | IC50 [3] | IC50 [4] | IC50 (Estrogen receptor) | IC50 [5] | IC50 [6] | IC50 [7] | Ki [7]

CC(C)(C(=O)c1cccnc1)c1cccnc1 [METYRAPONE]
Not Active: IC50 [1] | IC50 [2] | IC50 [3] | IC50 [4] | IC50 (Estrogen receptor) | IC50 [5] | IC50 [6] | IC50 [7] | Ki [7]

Cc1ncc([N+](=O)[O-])n1CCO [METRONIDAZOLE]
Not Active: IC50 [1] | IC50 [2] | IC50 [3] | IC50 [4] | IC50 (Estrogen receptor) | IC50 [5] | IC50 [6] | IC50 [7] | Ki [7]

C[C@@H](O)[C@H](CO)NC(=O)[C@@H]1CSSC[C@H](NC(=O)[C@H](N)Cc2ccccc2)C(=O)N[C@@H](Cc2ccccc2)C(=O)N[C@H](Cc2c[nH]c3ccccc23)C(=O)N[C@@H](CCCCN)C(=O)N[C@@H]([C@@H](C)O)C(=O)N1 (H-[dF]CF[dW]KTC-{Threoninol(2S,3R)}; disulfide 2-7)
Not Active: IC50 [1] | IC50 [2] | IC50 [3] | IC50 [4] | IC50 (Estrogen receptor) | IC50 [5] | IC50 [6] | IC50 [7] | Ki [7]

COc1ccc2[nH]c([S+]([O-])Cc3ncc(C)c(OC)c3C)nc2c1 (centres undefined) [OMEPRAZOLE]
Not Active: IC50 [1] | IC50 [2] | IC50 [3] | IC50 [4] | IC50 (Estrogen receptor) | IC50 [5] | IC50 [6] | IC50 [7] | Ki [7]
